Reference: the supplement of paper PMC10307832

Experiments:
Test in all cases: relative viability (nuclei count vs DMSO), 5 days (fraction); higher = more cells survive
201T = tested on: 201T
How it was run: (§1)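 Each reported value is a median over duplicate plates. It expresses relative viability: treated-well nuclei count divided by vehicle-well nuclei count. Lung cancer cell lines in 1536-well plates were dosed by pin tool a day after seeding, alone with one drug or with a fixed anchor-drug dose plus five library-drug doses (not always all listed) in √10 steps, and nuclei were counted after 5 days.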

ABC-1 = tested on: ABC-1
How it was run: as §1

CAL-12T = tested on: CAL-12T
How it was run: as §1

COR-L23 = tested on: COR-L23
How it was run: as §1

HCC-44 = tested on: HCC-44
How it was run: as §1

HOP-62 = tested on: HOP-62
How it was run: as §1

LC-2-ad = tested on: LC-2-ad
How it was run: as §1

LCLC-103H = tested on: LCLC-103H
How it was run: as §1

NCI-H1355 = tested on: NCI-H1355
How it was run: as §1

NCI-H1395 = tested on: NCI-H1395
How it was run: as §1

NCI-H1651 = tested on: NCI-H1651
How it was run: as §1

NCI-H1666 = tested on: NCI-H1666
How it was run: as §1

NCI-H1993 = tested on: NCI-H1993
How it was run: as §1

NCI-H2085 = tested on: NCI-H2085
How it was run: as §1

NCI-H2170 = tested on: NCI-H2170
How it was run: as §1

NCI-H2228 = tested on: NCI-H2228
How it was run: as §1

NCI-H2347 = tested on: NCI-H2347
How it was run: as §1

NCI-H23 = tested on: NCI-H23
How it was run: as §1

NCI-H322M = tested on: NCI-H322M
How it was run: as §1

NCI-H520 = tested on: NCI-H520
How it was run: as §1

NCI-H647 = tested on: NCI-H647
How it was run: as §1

NCI-H661 = tested on: NCI-H661
How it was run: as §1

NCI-H838 = tested on: NCI-H838
How it was run: as §1

O=c1[nH]c2ccccc2n1C1CCN(CCCC(c2ccc(F)cc2)c2ccc(F)cc2)CC1 [Pimozide] + O=C(c1cc(Cc2n[nH]c(=O)c3ccccc23)ccc1F)N1CCN(C(=O)C2CC2)CC1 [Olaparib] (partner 8 µM)
relative viability (201T; first compound 0.08 µM): 0.876
relative viability (201T; first compound 0.253 µM): 0.836
relative viability (201T; first compound 0.8 µM): 0.807
relative viability (201T; first compound 2.53 µM): 0.821
relative viability (201T; first compound 8 µM): 0.719
relative viability (ABC-1; first compound 0.08 µM): 0.782
relative viability (ABC-1; first compound 0.253 µM): 0.975
relative viability (ABC-1; first compound 0.8 µM): 1.21
relative viability (ABC-1; first compound 2.53 µM): 0.618
relative viability (ABC-1; first compound 8 µM): 0.477
relative viability (CAL-12T; first compound 0.08 µM): 0.672
relative viability (CAL-12T; first compound 0.253 µM): 0.687
relative viability (CAL-12T; first compound 0.8 µM): 0.709
relative viability (CAL-12T; first compound 2.53 µM): 0.698
relative viability (CAL-12T; first compound 8 µM): 0.623
relative viability (COR-L23; first compound 0.08 µM): 0.325
relative viability (COR-L23; first compound 0.253 µM): 0.308
relative viability (COR-L23; first compound 0.8 µM): 0.386
relative viability (COR-L23; first compound 2.53 µM): 0.383
relative viability (COR-L23; first compound 8 µM): 0.336
relative viability (HCC-44; first compound 0.08 µM): 1
relative viability (HCC-44; first compound 0.253 µM): 1.02
relative viability (HCC-44; first compound 0.8 µM): 0.938
relative viability (HCC-44; first compound 2.53 µM): 0.973
relative viability (HCC-44; first compound 8 µM): 0.931
relative viability (HOP-62; first compound 0.08 µM): 0.588
relative viability (HOP-62; first compound 0.253 µM): 0.342
relative viability (HOP-62; first compound 0.8 µM): 0.356
relative viability (HOP-62; first compound 2.53 µM): 0.39
relative viability (HOP-62; first compound 8 µM): 0.56
relative viability (LC-2-ad; first compound 0.08 µM): 0.68
relative viability (LC-2-ad; first compound 0.253 µM): 0.731
relative viability (LC-2-ad; first compound 0.8 µM): 0.69
relative viability (LC-2-ad; first compound 2.53 µM): 0.668
relative viability (LC-2-ad; first compound 8 µM): 0.673
relative viability (LCLC-103H; first compound 0.08 µM): 0.782
relative viability (LCLC-103H; first compound 0.253 µM): 0.721
relative viability (LCLC-103H; first compound 0.8 µM): 0.722
relative viability (LCLC-103H; first compound 2.53 µM): 0.695
relative viability (LCLC-103H; first compound 8 µM): 0.72
relative viability (NCI-H1355; first compound 0.08 µM): 0.717
relative viability (NCI-H1355; first compound 0.253 µM): 0.677
relative viability (NCI-H1355; first compound 0.8 µM): 0.675
relative viability (NCI-H1355; first compound 2.53 µM): 0.758
relative viability (NCI-H1355; first compound 8 µM): 0.689
relative viability (NCI-H1395; first compound 0.08 µM): 0.445
relative viability (NCI-H1395; first compound 0.253 µM): 0.478
relative viability (NCI-H1395; first compound 0.8 µM): 0.475
relative viability (NCI-H1395; first compound 2.53 µM): 0.456
relative viability (NCI-H1395; first compound 8 µM): 0.419
relative viability (NCI-H1651; first compound 0.08 µM): 0.203
relative viability (NCI-H1651; first compound 0.253 µM): 0.189
relative viability (NCI-H1651; first compound 0.8 µM): 0.177
relative viability (NCI-H1651; first compound 2.53 µM): 0.182
relative viability (NCI-H1651; first compound 8 µM): 0.187
relative viability (NCI-H1666; first compound 0.08 µM): 0.708
relative viability (NCI-H1666; first compound 0.253 µM): 0.737
relative viability (NCI-H1666; first compound 0.8 µM): 0.787
relative viability (NCI-H1666; first compound 2.53 µM): 0.756
relative viability (NCI-H1666; first compound 8 µM): 0.754
relative viability (NCI-H1993; first compound 0.08 µM): 0.95
relative viability (NCI-H1993; first compound 0.253 µM): 1.12
relative viability (NCI-H1993; first compound 0.8 µM): 0.918
relative viability (NCI-H1993; first compound 2.53 µM): 1.05
relative viability (NCI-H1993; first compound 8 µM): 1.13
relative viability (NCI-H2085; first compound 0.08 µM): 0.691
relative viability (NCI-H2085; first compound 0.253 µM): 0.82
relative viability (NCI-H2085; first compound 0.8 µM): 0.767
relative viability (NCI-H2085; first compound 2.53 µM): 0.783
relative viability (NCI-H2085; first compound 8 µM): 0.796
relative viability (NCI-H2170; first compound 0.08 µM): 0.592
relative viability (NCI-H2170; first compound 0.253 µM): 0.554
relative viability (NCI-H2170; first compound 0.8 µM): 0.608
relative viability (NCI-H2170; first compound 2.53 µM): 0.593
relative viability (NCI-H2170; first compound 8 µM): 0.543
relative viability (NCI-H2228; first compound 0.08 µM): 0.759
relative viability (NCI-H2228; first compound 0.253 µM): 0.699
relative viability (NCI-H2228; first compound 0.8 µM): 0.555
relative viability (NCI-H2228; first compound 2.53 µM): 0.45
relative viability (NCI-H2228; first compound 8 µM): 0.344
relative viability (NCI-H2347; first compound 0.08 µM): 0.663
relative viability (NCI-H2347; first compound 0.253 µM): 0.556
relative viability (NCI-H2347; first compound 0.8 µM): 0.577
relative viability (NCI-H2347; first compound 2.53 µM): 0.519
relative viability (NCI-H2347; first compound 8 µM): 0.587
relative viability (NCI-H23; first compound 0.08 µM): 0.293
relative viability (NCI-H23; first compound 0.253 µM): 0.326
relative viability (NCI-H23; first compound 0.8 µM): 0.325
relative viability (NCI-H23; first compound 2.53 µM): 0.285
relative viability (NCI-H23; first compound 8 µM): 0.275
relative viability (NCI-H322M; first compound 0.08 µM): 0.76
relative viability (NCI-H322M; first compound 0.253 µM): 0.732
relative viability (NCI-H322M; first compound 0.8 µM): 0.684
relative viability (NCI-H322M; first compound 2.53 µM): 0.833
relative viability (NCI-H322M; first compound 8 µM): 0.795
relative viability (NCI-H520; first compound 0.08 µM): 0.33
relative viability (NCI-H520; first compound 0.253 µM): 0.345
relative viability (NCI-H520; first compound 0.8 µM): 0.266
relative viability (NCI-H520; first compound 2.53 µM): 0.312
relative viability (NCI-H520; first compound 8 µM): 0.276
relative viability (NCI-H647; first compound 0.08 µM): 0.562
relative viability (NCI-H647; first compound 0.253 µM): 0.503
relative viability (NCI-H647; first compound 0.8 µM): 0.391
relative viability (NCI-H647; first compound 2.53 µM): 0.495
relative viability (NCI-H647; first compound 8 µM): 0.28
relative viability (NCI-H661; first compound 0.08 µM): 0.735
relative viability (NCI-H661; first compound 0.253 µM): 0.699
relative viability (NCI-H661; first compound 0.8 µM): 0.704
relative viability (NCI-H661; first compound 2.53 µM): 0.675
relative viability (NCI-H661; first compound 8 µM): 0.587
relative viability (NCI-H838; first compound 0.08 µM): 0.772
relative viability (NCI-H838; first compound 0.253 µM): 0.757
relative viability (NCI-H838; first compound 0.8 µM): 0.729
relative viability (NCI-H838; first compound 2.53 µM): 0.719
relative viability (NCI-H838; first compound 8 µM): 0.744
